This note sets out measurements from US9850245B2 (Merck Sharp & Dohme Corp., priority 2014, dated 2017).

Counter-ions that a name gives are not always drawn.

By IC50 is commonly meant the point on the concentration scale where inhibition reaches its midpoint. The low end stands for higher potency, the high end for lower potency.

In the assay the target is ROMK (Homo sapiens (Human), UniProt P48048). Nature of the assay: Thallium Flux Assay. Type of assay: cell-based. As to the method: A Thallium Flux Assay was performed on the compounds of the Examples. This assay has been described previously; see, e.g., PCT Published Application WO 2013/062900.
Chain of ROMK (P48048 whole entry): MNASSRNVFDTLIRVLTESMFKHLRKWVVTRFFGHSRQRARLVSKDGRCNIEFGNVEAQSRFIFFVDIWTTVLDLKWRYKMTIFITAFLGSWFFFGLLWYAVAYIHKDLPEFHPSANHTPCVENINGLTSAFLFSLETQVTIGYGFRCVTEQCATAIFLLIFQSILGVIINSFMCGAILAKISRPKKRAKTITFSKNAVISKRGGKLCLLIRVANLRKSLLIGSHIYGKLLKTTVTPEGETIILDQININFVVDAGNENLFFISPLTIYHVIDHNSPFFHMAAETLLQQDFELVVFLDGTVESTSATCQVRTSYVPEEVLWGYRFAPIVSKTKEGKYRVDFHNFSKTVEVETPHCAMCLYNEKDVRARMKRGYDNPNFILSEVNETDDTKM
Compound `CC1=C(N2CC(F)(F)OC3(CCN(C[C@H](O)c4ccc(-n5cnnn5)nc4)CC3)C2)COC1=O` [Example 7A, (R)-4-(9-(2-(6-(1H-tetrazol-1-yl)pyridin-3-yl)-2-hydroxyethyl)-2,2-difluoro-1-oxa-4,9-diazaspiro[5.5]undecan-4-yl)-3-methylfuran-2(5H)-one] showed an IC50 of 416 nM. The compound `CC1=C(N2C(=O)C3(CCN(C[C@@H](O)c4ccc(-n5cnnn5)nc4)CC3)OCC2C)COC1=O` (single isomer, unassigned) [Example 10A] displayed an IC50 of 155 nM. This IC50 lies about 2.7-fold lower than the previous one.

`CC1=C(N2CCOC3(CCCN(C[C@@H](O)c4ccc(-n5cnnn5)nc4)CC3)C2=O)COC1=O` (stereo partly drawn) [Example 15, 9-((S)-2-(6-(1H-tetrazol-1-yl)pyridin-3-yl)-2-hydroxyethyl)-4-(4-methyl-5-oxo-2,5-dihydrofuran-3-yl)-1-oxa-4,9-diazaspiro[5.6]dodecan-5-one] had an IC50 of 280 nM. This IC50 is about 1.8-fold higher than that of the compound before. Turning to `O=C1OCC(N2CCOC3(CCN(C[C@H](O)c4ccc(-n5cnnn5)nc4)CC3)C2)=C1Cl` [Example 24A], the IC50 was 11.5 nM. The result for `CC1=C(N2CCOC3(CCN(CC(O)c4cnc(-n5cnnn5)cn4)CC3)CC2)COC1=O` (single isomer, unassigned) [Example 40, 4-(3-(2-(5-(1H-tetrazol-1-yl)pyrazin-2-yl)-2-hydroxyethyl)-7-oxa-3,10-diazaspiro[5.6]dodecan-10-yl)-3-methylfuran-2(5H)-one] reads 118 nM; that for `CC1=C(N2CC3(CCN(C[C@H](O)c4ccc5c(c4C)COC5=O)CC3)OCC2=O)COC1=O` [Example 59, (R)-9-(2-hydroxy-2-(4-methyl-1-oxo-1,3-dihydroisobenzofuran-5-yl)ethyl)-4-(4-methyl-5-oxo-2,5-dihydrofuran-3-yl)-1-oxa-4,9-diazaspiro[5.5]undecan-3-one], 697 nM; that for `O=C1OCC(N2CCOC3(CCN(C[C@@H](O)c4ccc(-n5cnnn5)nc4)CC3)C2)=C1C1CC1` [Example 28B, (S)-4-(9-(2-(6-(1H-tetrazol-1-yl)pyridin-3-yl)-2-hydroxyethyl)-1-oxa-4,9-diazaspiro[5.5]undecan-4-yl)-3-cyclopropylfuran-2(5H)-one], 630 nM. Compound `CC1COC2(CCN(C[C@@H](O)c3ccc(-n4cnnn4)nc3)CC2)C(=O)N1C1=CC(=O)OC1` (single isomer, unassigned) [Example 13A] showed an IC50 of 230 nM.

Consider `CC1=C(N2CCNC3(CCN(C[C@H](O)c4ccc5c(c4C)COC5=O)CC3)C2=O)COC1=O` [Example 1, 9-[(2R)-2-hydroxy-2-(4-methyl-1-oxo-1,3-dihydro-2-benzofuran-5-yl)ethyl]-4-(4-methyl-5-oxo-2,5-dihydrofuran-3-yl)-1,4,9-triazaspiro[5.5]undecan-5-one dihydrochloride], for which the IC50 came out at 68.7 nM. On to `CC1=C(N2CCOC3(CCN(C[C@H](F)c4ccc(-n5cnnn5)nc4)CC3)C2=O)COC1=O` [Example 55, (R)-9-(2-(6-(1H-tetrazol-1-yl)pyridin-3-yl)-2-fluoroethyl)-4-(4-methyl-5-oxo-2,5-dihydrofuran-3-yl)-1-oxa-4,9-diazaspiro[5.5]undecan-5-one], for which the midpoint of inhibition, the IC50, lay at 59 nM. The compound `O=C1OCC(N2CCOC3(CCN(C[C@@H](O)c4ccc(-n5cnnn5)nc4)CC3)C2)=C1Cl` [Example 24B] had a half-inhibitory concentration (IC50) of 34.5 nM. In turn, `CC1=C(N2CCOC3(CC4CCC(C3)N4C[C@H](O)c3ccc4c(c3C)COC4=O)C2=O)COC1=O` (stereo partly drawn) [Example 42, (1R,2′R,5S)-8-((R)-2-hydroxy-2-(4-methyl-1-oxo-1,3-dihydroisobenzofuran-5-yl)ethyl)-4′-(4-methyl-5-oxo-2,5-dihydrofuran-3-yl)-8-azaspiro[bicyclo[3.2.1]octane-3,2′-morpholin]-3′-one] displayed an IC50 of 87.4 nM. The same measure for `CC1=C(N2CCOC3(CCN(C[C@@H](O)c4ccc5c(c4C)COC5=O)CC3)C2=O)COC1=O` [Example 8B, (S)-9-(2-hydroxy-2-(4-methyl-1-oxo-1,3-dihydroisobenzofuran-5-yl)ethyl)-4-(4-methyl-5-oxo-2,5-dihydrofuran-3-yl)-1-oxa-4,9-diazaspiro[5.5]undecan-5-one]: 89.9 nM; for `Cc1cc(-n2cnnn2)ccc1C(O)CN1CCC2(CC1)CN(C1=CC(=O)OC1)CCO2` (single isomer, unassigned) [Example 30B, 4-(9-(2-hydroxy-2-(2-methyl-4-(1H-tetrazol-1-yl)phenyl)ethyl)-1-oxa-4,9-diazaspiro[5.5]undecan-4-yl)furan-2(5H)-one]: 74.3 nM; for `CC1=C(N2CCOC3(CCN(CCc4ccc(-n5cnnn5)nc4)CC3)C2=O)COC1=O` [Example 53, 9-(2-(6-(1H-tetrazol-1-yl)pyridin-3-yl)ethyl)-4-(4-methyl-5-oxo-2,5-dihydrofuran-3-yl)-1-oxa-4,9-diazaspiro[5.5]undecan-5-one]: 13.1 nM. Compound `CC1=C(N2CCOC3(CCN(CC(O)c4ccc(-n5cnnn5)cc4F)CC3)C2)COC1=O` (single isomer, unassigned) [Example 32B, 4-(9-(2-(2-fluoro-4-(1H-tetrazol-1-yl)phenyl)-2-hydroxyethyl)-1-oxa-4,9-diazaspiro[5.5]undecan-4-yl)-3-methylfuran-2(5H)-one] showed an IC50 of 123 nM. Take `CC1=C(N2CCOC3(CCN(CC(O)c4ccc(-n5cnnn5)cc4F)CC3)C2)COC1=O` (single isomer, unassigned) [Example 32A, 4-(9-(2-(2-fluoro-4-(1H-tetrazol-1-yl)phenyl)-2-hydroxyethyl)-1-oxa-4,9-diazaspiro[5.5]undecan-4-yl)-3-methylfuran-2(5H)-one]: the IC50 was found to be 37.4 nM. The result for `Cc1c([C@@H](O)CN2CCC3(CC2)CN(C2=C(Cl)C(=O)OC2)CCO3)ccc2c1COC2=O` [Example 23, (R)-5-(2-(4-(4-chloro-5-oxo-2,5-dihydrofuran-3-yl)-1-oxa-4,9-diazaspiro[5.5]undecan-9-yl)-1-hydroxyethyl)-4-methylisobenzofuran-1(3H)-one] reads 59.1 nM; that for `CC1=C(N2CCOC3(CC4CCC(C3)N4C[C@H](O)c3ccc(-n4cnnn4)nc3)C2=O)COC1=O` (stereo partly drawn) [Example 47, (1R,2′R,5S)-8-((R)-2-(6-(1H-tetrazol-1-yl)pyridin-3-yl)-2-hydroxyethyl)-4′-(4-methyl-5-oxo-2,5-dihydrofuran-3-yl)-8-azaspiro[bicyclo[3.2.1]octane-3,2′-morpholin]-3′-one], 9.57 nM. As to `CC1=C(N2CCCOC3(CCN(CC(O)c4ccc(-n5cnnn5)nc4C)CC3)C2=O)COC1=O` (single isomer, unassigned) [Example 38, 3-(2-hydroxy-2-(2-methyl-6-(1H-tetrazol-1-yl)pyridin-3-yl)ethyl)-11-(4-methyl-5-oxo-2,5-dihydrofuran-3-yl)-7-oxa-3,11-diazaspiro[5.6]dodecan-12-one], 526 nM corresponded to half-maximal inhibition (IC50). `CC1=C(N2CCOC3(CCN(CCc4cnc(-n5cnnn5)cn4)CC3)C2=O)COC1=O` [Example 52, 9-(2-(5-(1H-tetrazol-1-yl)pyrazin-2-yl)ethyl)-4-(4-methyl-5-oxo-2,5-dihydrofuran-3-yl)-1-oxa-4,9-diazaspiro[5.5]undecan-5-one] came in with an IC50 of 39.3 nM. The compound `CC1=C(N2CCOC3(CCN(CC(O)c4cnc(-n5cnnn5)cn4)CC3)C2)COC1=O` (single isomer, unassigned) [Example 48A, 4-(9-(2-(5-(1H-tetrazol-1-yl)pyrazin-2-yl)-2-hydroxyethyl)-1-oxa-4,9-diazaspiro[5.5]undecan-4-yl)-3-methylfuran-2(5H)-one] showed an IC50 of 462 nM.

Take `O=C1C=C(N2CCOC3(CC4CCC(C3)N4CCc3ccc(-n4cnnn4)nn3)C2=O)CO1` [Example 54, (1R,2′r,5S)-8-(2-(6-(1H-tetrazol-1-yl)pyridazin-3-yl)ethyl)-4′-(5-oxo-2,5-dihydrofuran-3-yl)-8-azaspiro[bicyclo[3.2.1]octane-3,2′-morpholin]-3′-one]: the half-inhibitory concentration (IC50) came to 3.76 nM. Compared with the last compound, the IC50 is about 120-fold lower. `CC1=C(N2CCOC3(CCN(CC(O)c4cnc(-n5cnnn5)cn4)CC3)C2)COC1=O` (single isomer, unassigned) [Example 48B, 4-(9-(2-(5-(1H-tetrazol-1-yl)pyrazin-2-yl)-2-hydroxyethyl)-1-oxa-4,9-diazaspiro[5.5]undecan-4-yl)-3-methylfuran-2(5H)-one] came in with an IC50 of 245 nM. The result for `CC1=C(N2CCOC3(CCN(CC(O)c4ccc(-n5cnnn5)cc4C)CC3)C2)COC1=O` (single isomer, unassigned) [Example 31A, 4-(9-(2-hydroxy-2-(2-methyl-4-(1H-tetrazol-1-yl)phenyl)ethyl)-1-oxa-4,9-diazaspiro[5.5]undecan-4-yl)-3-methylfuran-2(5H)-one] reads 126 nM; that for `CC1=C(N2CCN(C)C3(CCN(CC(O)c4ccc(-n5cnnn5)nc4C)CC3)C2=O)COC1=O` (single isomer, unassigned) [Example 35A, 9-(2-hydroxy-2-(2-methyl-6-(1H-tetrazol-1-yl)pyridin-3-yl)ethyl)-1-methyl-4-(4-methyl-5-oxo-2,5-dihydrofuran-3-yl)-1,4,9-triazaspiro[5.5]undecan-5-one], 41.8 nM. The same measure for `CC1=C(N2CCOC3(CCN(CC(O)c4cnc(-n5cnnn5)nc4)CC3)C2=O)COC1=O` (single isomer, unassigned) [Example 46B, 9-(2-(2-(1H-tetrazol-1-yl)pyrimidin-5-yl)-2-hydroxyethyl)-4-(4-methyl-5-oxo-2,5-dihydrofuran-3-yl)-1-oxa-4,9-diazaspiro[5.5]undecan-5-one]: 58.1 nM; for `CC1=C(N2C(=O)C3(CCN(C[C@H](O)c4ccc(-n5cnnn5)nc4)CC3)OCC2C)COC1=O` (single isomer, unassigned) [Example 10B]: 307 nM; for `CC1=C(N2CCOC3(CCN(CC(O)c4ccc(-n5cnnn5)cc4C)CC3)C2)COC1=O` (single isomer, unassigned) [Example 31B, 4-(9-(2-hydroxy-2-(2-methyl-4-(1H-tetrazol-1-yl)phenyl)ethyl)-1-oxa-4,9-diazaspiro[5.5]undecan-4-yl)-3-methylfuran-2(5H)-one]: 26 nM.
